Reference: ChEMBL document CHEMBL1125697, “Synthesis and pharmacological examination of 1-(3-methoxy-4-methylphenyl)-2-aminopropane and 5-methoxy-6-methyl-2-aminoindan: similarities to 3,4-(methylenedioxy)methamphetamine (MDMA)” (J Med Chem, 1991)
pIC50: −log10 of the molar value. Values joined by “and” are separate entries in the source; they are usually repeats but may differ in a detail not shown here. Equal values may be shown once.

Key:
Rattus norvegicus [1] = species: Rattus norvegicus; assay: Effective dose was evaluated for drug discrimination in I-trained rats; type: functional
Rattus norvegicus [2] = assay: Momoamine and metabolic levels observed 1 week following acute dosing against at a dose of 20 mg/kg Frontal cortex DOPAC; type: ADME, organism-based; design: dose 20 mg/kg; details: in vivo, 168 h
Rattus norvegicus [3] = assay: Momoamine and metabolic levels observed 1 week following acute dosing against at a dose of 20 mg/kg Frontal cortex HVA; type: ADME, organism-based; design: dose 20 mg/kg; details: in vivo, 168 h
Rattus norvegicus [4] = assay: Momoamine and metabolic levels observed 1 week following acute dosing against at a dose of 20 mg/kg Frontal cortex NE; type: ADME, organism-based; design: dose 20 mg/kg; details: in vivo, 168 h
Rattus norvegicus [5] = assay: Momoamine and metabolic levels observed 1 week following acute dosing against at a dose of 20 mg/kg Frontal cortex DA; type: ADME, organism-based; design: dose 20 mg/kg; details: in vivo, 168 h
Rattus norvegicus [6] = assay: Momoamine and metabolic levels observed 1 week following acute dosing against at a dose of 10 mg/kg Hippocampus 5-HT; type: ADME, organism-based; design: dose 10 mg/kg; details: in vivo, 168 h
Rattus norvegicus [7] = assay: Momoamine and metabolic levels observed 1 week following acute dosing against at a dose of 10 mg/kg Hippocampus NE; type: ADME, organism-based; design: dose 10 mg/kg; details: in vivo, 168 h
Rattus norvegicus [8] = assay: Momoamine and metabolic levels observed 1 week following acute dosing at a dose of 10 mg/kg Frontal cortex 5-HIAA; type: ADME, organism-based; design: dose 10 mg/kg; details: in vivo, 168 h
Rattus norvegicus [9] = assay: Momoamine and metabolic levels observed 1 week following acute dosing at a dose of 10 mg/kg Frontal cortex 5-HT; type: ADME, organism-based; design: dose 10 mg/kg; details: in vivo, 168 h
Rattus norvegicus [10] = assay: Momoamine and metabolic levels observed 1 week following acute dosing at a dose of 10 mg/kg Frontal cortex DA; type: ADME, organism-based; design: dose 10 mg/kg; details: in vivo, 168 h
Rattus norvegicus [11] = assay: Momoamine and metabolic levels observed 1 week following acute dosing at a dose of 10 mg/kg Frontal cortex DOPAC; type: ADME, organism-based; design: dose 10 mg/kg; details: in vivo, 168 h
Rattus norvegicus [12] = assay: Momoamine and metabolic levels observed 1 week following acute dosing against at a dose of 20 mg/kg Hippocampus NE; type: ADME, organism-based; design: dose 20 mg/kg; details: in vivo, 168 h
Rattus norvegicus [13] = assay: Momoamine and metabolic levels observed 2 weeks following sub-acute dosing against Frontal cortex 5-HIAA; type: ADME, organism-based; details: in vivo, 336 h
Rattus norvegicus [14] = assay: Momoamine and metabolic levels observed 2 weeks following sub-acute dosing against Frontal cortex 5-HT; type: ADME, organism-based; details: in vivo, 336 h
Rattus norvegicus [15] = assay: Momoamine and metabolic levels observed 2 weeks following sub-acute dosing against Frontal cortex DA; type: ADME, organism-based; details: in vivo, 336 h
Rattus norvegicus [16] = assay: Momoamine and metabolic levels observed 2 weeks following sub-acute dosing against Frontal cortex DOPAC; type: ADME, organism-based; details: in vivo, 336 h
Rattus norvegicus [17] = assay: Momoamine and metabolic levels observed 2 weeks following sub-acute dosing against Frontal cortex NE; type: ADME, organism-based; details: in vivo, 336 h
Rattus norvegicus [18] = assay: Momoamine and metabolic levels observed 2 weeks following sub-acute dosing against Hippocampus 5-HIAA; type: ADME, organism-based; details: in vivo, 336 h
Rattus norvegicus [19] = assay: Momoamine and metabolic levels observed 2 weeks following sub-acute dosing against Hippocampus 5-HT; type: ADME, organism-based; details: in vivo, 336 h
Rattus norvegicus [20] = assay: Momoamine and metabolic levels observed 1 week following acute dosing against at a dose of 20 mg/kg Frontal cortex 5-HIAA; type: ADME, organism-based; design: dose 20 mg/kg; details: in vivo, 168 h
Rattus norvegicus [21] = assay: Momoamine and metabolic levels observed 1 week following acute dosing against at a dose of 20 mg/kg Frontal cortex 5-HT; type: ADME, organism-based; design: dose 20 mg/kg; details: in vivo, 168 h
Rattus norvegicus [22] = assay: Momoamine and metabolic levels observed 1 week following acute dosing at a dose of 10 mg/kg Frontal cortex HVA; type: ADME, organism-based; design: dose 10 mg/kg; details: in vivo, 168 h
Rattus norvegicus [23] = assay: Momoamine and metabolic levels observed 1 week following acute dosing at a dose of 10 mg/kg Frontal cortex NE; type: ADME, organism-based; design: dose 10 mg/kg; details: in vivo, 168 h
Rattus norvegicus [24] = assay: Momoamine and metabolic levels observed 1 week following acute dosing at a dose of 10 mg/kg Hippocampus 5-HIAA; type: ADME, organism-based; design: dose 10 mg/kg; details: in vivo, 168 h
Rattus norvegicus [25] = assay: Momoamine and metabolic levels observed 2 weeks following sub-acute dosing against Hippocampus NE; type: ADME, organism-based; details: in vivo, 336 h
Rattus norvegicus [26] = assay: Momoamine and metabolic levels observed at 3 hr postdrug against, at a dose of 20 mg/kg Frontal cortex 5-HIAA; type: ADME, organism-based; design: dose 20 mg/kg; details: in vivo
Rattus norvegicus [27] = assay: Momoamine and metabolic levels observed at 3 hr postdrug against, at a dose of 20 mg/kg Frontal cortex 5-HT; type: ADME, organism-based; design: dose 20 mg/kg; details: in vivo
Rattus norvegicus [28] = assay: Momoamine and metabolic levels observed at 3 hr postdrug against, at a dose of 20 mg/kg Frontal cortex DA; type: ADME, organism-based; design: dose 20 mg/kg; details: in vivo
Rattus norvegicus [29] = assay: Momoamine and metabolic levels observed at 3 hr postdrug against, at a dose of 20 mg/kg Frontal cortex DOPAC; type: ADME, organism-based; design: dose 20 mg/kg; details: in vivo
Rattus norvegicus [30] = assay: Momoamine and metabolic levels observed at 3 hr postdrug against, at a dose of 20 mg/kg Frontal cortex NE; type: ADME, organism-based; design: dose 20 mg/kg; details: in vivo
Rattus norvegicus [31] = assay: Momoamine and metabolic levels observed at 3 hr postdrug against, at a dose of 20 mg/kg Hippocampus 5-HIAA; type: ADME, organism-based; design: dose 20 mg/kg; details: in vivo
Rattus norvegicus [32] = assay: Momoamine and metabolic levels observed at 3 h postdrug against, at a dose of 20 mg/kg Hippocampus 5-HT; type: ADME, organism-based; design: dose 20 mg/kg; details: in vivo
Rattus norvegicus [33] = assay: Momoamine and metabolic levels observed at 3 hr postdrug against, at a dose of 20 mg/kg Hippocampus NE; type: ADME, organism-based; design: dose 20 mg/kg; details: in vivo
Rattus norvegicus [34] = assay: Momoamine and metabolic levels observed 1 week following acute dosing against at a dose of 20 mg/kg Hippocampus 5-HIAA; type: ADME, organism-based; design: dose 20 mg/kg; details: in vivo, 168 h
Rattus norvegicus [35] = assay: Momoamine and metabolic levels observed 1 week following acute dosing against at a dose of 20 mg/kg Hippocampus 5-HT; type: ADME, organism-based; design: dose 20 mg/kg; details: in vivo, 168 h
Rattus norvegicus [36] = assay: Effective dose was evaluated for drug discrimination in I-trained rats, when given at a dose of 0.25 micro mol/kg; type: functional
Rattus norvegicus [37] = assay: Effective dose was evaluated for drug discrimination in I-trained rats, when given at a dose of 0.25 mg/kg; type: functional
Rattus norvegicus [38] = assay: Effective dose was evaluated for drug discrimination in I-trained rats, when given at a dose of 1.16 micro mol/kg; type: functional
Rattus norvegicus [39] = species: Rattus norvegicus; assay: Compound was evaluated for the uptake inhibition of [3H]-5-HT in rats; type: functional
Rattus norvegicus [40] = assay: Percentage of non disrupted rats that selected the drug lever, when given at a dose of 0.25 mg/kg; type: functional
Rattus norvegicus [41] = assay: Percentage of non disrupted rats that selected the drug lever, when given at a dose of 0.25 mg/kg in S-Amphetamine-Trained rats; type: functional
Rattus norvegicus [42] = assay: Percentage of non disrupted rats that selected the drug lever, when given at a dose of 0.5 mg/kg; type: functional
Rattus norvegicus [43] = assay: Percentage of non disrupted rats that selected the drug lever, when given at a dose of 1.00 mg/kg in […]-Trained rats; type: functional
Rattus norvegicus [44] = assay: Percentage of non disrupted rats that selected the drug lever, when given at a dose of 1.00 mg/kg in S-Amphetamine-Trained rats; type: functional
Rattus norvegicus [45] = assay: Percentage of non disrupted rats that selected the drug lever, when given at a dose of 2.00 mg/kg; type: functional
Rattus norvegicus [46] = assay: Percentage of non disrupted rats that selected the drug lever, when given at a dose of 2.00 mg/kg in […]-Trained rats; type: functional
Rattus norvegicus [47] = assay: Percentage of non disrupted rats that selected the drug lever, when given at a dose of 2.50 mg/kg in […]-Trained rats; type: functional; details: dose 2.5 mg/kg
Rattus norvegicus [48] = assay: Percentage of non disrupted rats that selected the drug lever, when given at a dose of 0.5 mg/kg in […]-Trained rats; type: functional
Rattus norvegicus [49] = assay: Percentage of non disrupted rats that selected the drug lever, when given at a dose of 0.5 mg/kg in S-Amphetamine-Trained rats; type: functional
Rattus norvegicus [50] = assay: Percentage of non disrupted rats that selected the drug lever, when given at a dose of 1.00 mg/kg; type: functional
[51] = target: Sodium-dependent serotonin transporter (Rattus norvegicus) (UniProt P31652); assay: Number of uptake sites for [3H]paroxetine receptor binding after sub-acute dosing against Frontal cortex; type: tissue-based
Sodium-dependent serotonin transporter (Rattus norvegicus), sequence (P31652 whole entry): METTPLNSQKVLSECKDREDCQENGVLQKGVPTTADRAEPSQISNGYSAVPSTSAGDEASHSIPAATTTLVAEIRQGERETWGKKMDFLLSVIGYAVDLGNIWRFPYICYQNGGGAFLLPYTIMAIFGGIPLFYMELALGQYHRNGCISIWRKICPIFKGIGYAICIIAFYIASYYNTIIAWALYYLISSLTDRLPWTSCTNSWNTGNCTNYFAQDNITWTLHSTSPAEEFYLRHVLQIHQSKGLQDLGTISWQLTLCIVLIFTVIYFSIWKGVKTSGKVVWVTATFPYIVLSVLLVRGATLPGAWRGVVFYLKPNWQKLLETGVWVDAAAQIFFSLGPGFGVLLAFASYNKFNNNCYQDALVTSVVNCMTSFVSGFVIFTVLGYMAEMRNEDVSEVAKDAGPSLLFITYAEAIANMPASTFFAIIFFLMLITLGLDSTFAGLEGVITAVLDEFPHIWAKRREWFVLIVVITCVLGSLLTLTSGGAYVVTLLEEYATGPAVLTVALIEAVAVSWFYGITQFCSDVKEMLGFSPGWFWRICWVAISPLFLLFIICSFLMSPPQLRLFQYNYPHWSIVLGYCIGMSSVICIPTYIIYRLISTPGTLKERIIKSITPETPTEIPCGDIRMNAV

[52] = target: Sodium-dependent serotonin transporter (Rattus norvegicus) (UniProt P31652); assay: Number of uptake sites for [3H]paroxetine receptor binding after sub-acute dosing against Hippocampus
Rattus norvegicus [53] = assay: Momoamine and metabolic levels observed 2 weeks following sub-acute dosing against Frontal cortex HVA; type: ADME, organism-based; details: in vivo, 336 h
Rattus norvegicus [54] = assay: Momoamine and metabolic levels observed at 3 hr postdrug against, at a dose of 20 mg/kg Frontal cortex HVA; type: ADME, organism-based; design: dose 20 mg/kg; details: in vivo
Rattus norvegicus [55] = assay: Percentage of non disrupted rats that selected the drug lever, when given at a dose of 0.75 mg/kg; type: functional
Rattus norvegicus [56] = assay: Effective dose was evaluated for drug discrimination in I-trained rats, when given at a dose of 2.32 micro mol/kg; type: functional
Rattus norvegicus [57] = assay: Effective dose was evaluated for drug discrimination in I-trained rats, when given at a dose of 0.5 mg/kg; type: functional
Rattus norvegicus [58] = assay: Percentage of non disrupted rats that selected the drug lever, when given at a dose of 1.50 mg/kg; type: functional; details: dose 1.5 mg/kg
[59] = Rattus norvegicus, read-out: ED50

CCN(CC)C(=O)[C@@H]1C=C2c3cccc4[nH]cc(c34)C[C@H]2N(C)C1 [LYSERGIDE]
ED50 (Rattus norvegicus [1]): 0.025 mg/kg and 0.058 µmol/kg

COc1ccc2c(c1C)CC(N)C2 (stereo unspecified)
Metabolite level (Rattus norvegicus [2]): 35
Metabolite level (Rattus norvegicus [3]): 65
Metabolite level (Rattus norvegicus [4]): 509
Metabolite level (Rattus norvegicus [5]): 81
Metabolite level (Rattus norvegicus [6]): 312
Metabolite level (Rattus norvegicus [7]): 633
Metabolite level (Rattus norvegicus [8]): 210
Metabolite level (Rattus norvegicus [9]): 312
Metabolite level (Rattus norvegicus [10]): 88
Metabolite level (Rattus norvegicus [11]): 36
Metabolite level (Rattus norvegicus [12]): 583
Metabolite level (Rattus norvegicus [13]): 256
Metabolite level (Rattus norvegicus [14]): 415
Metabolite level (Rattus norvegicus [15]): 92
Metabolite level (Rattus norvegicus [16]): 54
Metabolite level (Rattus norvegicus [17]): 568
Metabolite level (Rattus norvegicus [18]): 518
Metabolite level (Rattus norvegicus [19]): 434
Metabolite level (Rattus norvegicus [20]): 240
Metabolite level (Rattus norvegicus [21]): 316
Metabolite level (Rattus norvegicus [22]): 74
Metabolite level (Rattus norvegicus [23]): 414
Metabolite level (Rattus norvegicus [24]): 434
Metabolite level (Rattus norvegicus [25]): 716
Metabolite level (Rattus norvegicus [26]): 146
Metabolite level (Rattus norvegicus [27]): 148
Metabolite level (Rattus norvegicus [28]): 113
Metabolite level (Rattus norvegicus [29]): 40
Metabolite level (Rattus norvegicus [30]): 558
Metabolite level (Rattus norvegicus [31]): 272
Metabolite level (Rattus norvegicus [32]): 256
Metabolite level (Rattus norvegicus [33]): 646
Metabolite level (Rattus norvegicus [34]): 476
Metabolite level (Rattus norvegicus [35]): 462
ED50 (Rattus norvegicus [36]): 2.63 µmol/kg
ED50 (Rattus norvegicus [37]; [59]): 0.81 mg/kg
ED50 (Rattus norvegicus [37]; dose 0.25 mg/kg): 0.56 mg/kg
ED50 (Rattus norvegicus [38]): 3.77 µmol/kg
pIC50 (Rattus norvegicus [39]): 6.67
SDL (Rattus norvegicus [40]): 13%
SDL (Rattus norvegicus [41]): 17%
SDL (Rattus norvegicus [42]): 25%
SDL (Rattus norvegicus [43]): 13%
SDL (Rattus norvegicus [44]): 50%
SDL (Rattus norvegicus [45]): 100%
SDL (Rattus norvegicus [46]): 38%
SDL (Rattus norvegicus [47]): 50%
SDL (Rattus norvegicus [48]): 11%
SDL (Rattus norvegicus [49]): 33%
SDL (Rattus norvegicus [50]): 75%
No. of uptake sites [51]: 13.6
No. of uptake sites [52]: 15.6
Metabolite level (Rattus norvegicus [53]): 59
Metabolite level (Rattus norvegicus [54]): 112

COc1cc(C[C@H](C)N)ccc1C
ED50 (Rattus norvegicus [37]; [59]): 0.46 mg/kg
ED50 (Rattus norvegicus [38]): 2.14 µmol/kg
pIC50 (Rattus norvegicus [39]): 7.00
SDL (Rattus norvegicus [40]): 17%
SDL (Rattus norvegicus [42]): 33%
SDL (Rattus norvegicus [55]): 100%

CNC(C)Cc1ccc2c(c1)OCO2 (stereo unspecified) [MIDOMAFETAMINE]
ED50 (Rattus norvegicus [1]): 0.64 mg/kg and 2.79 µmol/kg

COc1cc(C[C@@H](C)N)ccc1C
ED50 (Rattus norvegicus [56]): 2.12 µmol/kg
ED50 (Rattus norvegicus [37]; [59]): 0.46 mg/kg
ED50 (Rattus norvegicus [57]): 0.46 mg/kg
ED50 (Rattus norvegicus [38]): 2.12 µmol/kg
pIC50 (Rattus norvegicus [39]): 6.70
SDL (Rattus norvegicus [40]): 33%
SDL (Rattus norvegicus [42]): 38%
SDL (Rattus norvegicus [58]): 100%
SDL (Rattus norvegicus [50]): 75%
